Measured values from PMC6389962 (Nature Communications, 2019).

Legend:
NEP 24.11 = NEP 24.11 (Homo sapiens, UniProt P08473); experiment: in vitro; details: pH 8
Method: Stock solutions of the oligomers were prepared at a concentration of 400 µM in a solution of 50 mM HEPES buffer, 50 mM NaCl, 0.05% Tween-80, pH 8.0. Stock solution of NEP 24.11 was prepared at a concentration of 100 µg mL^−1 in water. Stability of oligomers to NEP 24.11 was assessed by conducting protease reaction in a 96-well plates at 20 °C. […] Each compound was also incubated in the absence of the enzyme (12 µL of HEPES buffer and 38 µL of oligomer). […] A portion of the quenched reaction solution was analysed by HPLC. The time course of peptide degradation was determined by integrating the area of each peak in a series of HPLC traces.

in vitro = details: mouse, plasma
Summary of the method: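 Oligomer at 5 µM final in mouse plasma/PBS pH 7.4 (1:1) at 37 °C, with a plasma-free control defining t = 0. Aliquots quenched in cold acetonitrile at 20 and 60 min; remaining oligomer quantified by LC-MS extracted-ion peak area.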

normal mice (C57BL/6J) = experiment: Blood glucose study in normal fed mice; format: in vivo, mouse; parameters: key to In vivo activity (indicator): + active; +++: + + + more active
Summary of the method: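 Fed male C57BL/6J mice (8 weeks, 20–25 g, n = 3 per group) received a single i.v. dose of 5 µg per mouse (50 nmol kg^−1) in PBS at 10 am. Blood glucose measured before dosing and at 30 min, 1, 2, 4 and 6 h after.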

[1] = Pharmacokinetic evaluation in mice, i.v. (final study, Fig. 5); details: C57BL/6J mice, LC-MS/MS
Method: Data are mean ± SEM, n = 3. Source data are provided as a Source Data file
After different time points, mice were sacrificed and blood samples were collected. The plasma was separated by centrifugation and the samples were frozen at −80 °C before analysis. A volume of 400 µL of each sample of plasma was mixed with 1 ml of acetonitrile to precipitate the protein and extract the compound. The sample were then vortexed and centrifuged (15,000 × g, 5 min, 16 °C) to sediment the precipitated protein.

[2] = Pharmacokinetic evaluation in mice, i.v. (first study, peer review file Table 3); details: in vivo, normal C57BL/6J mice, male, n = 3, 25 μg/mouse (~250 nmol/kg) intravenous, first PK study
Method: Our current understanding is that […]
ways (See Figure below for reviewing only).
(1 picture or pasted object on this page, not shown here)
PK mice Table 3 | Pharmacokinetic evaluation in mice by i.v.
*** (m L/m i n/ k g) (mL/kg) (m in)
Formulation: 2 mg/mL in PB S 1X.
An additional table has been prepared (Table 3) and the following text was added:
“A pharmacokinetic study was also conducted in mice to access the pharmacologic […]
The manuscript by Fremaux et al. describes the synthesis and biological evaluation of α-pept ide- […]
In the design of those analogues, four […]
peptide chemistry and medicinal chemistry.
The authors should, however, revise the manuscript for typographic and gramatical errors. As an example, the following sentence should be revised:
The manuscript was revised for typographic and grammatical errors and the sentence above was […]

mouse GLP-1 receptor = target: T1, mouse GLP-1 receptor (Mus musculus, UniProt O35659); experiment: cell-based
T1 sequence (O35659 22-463): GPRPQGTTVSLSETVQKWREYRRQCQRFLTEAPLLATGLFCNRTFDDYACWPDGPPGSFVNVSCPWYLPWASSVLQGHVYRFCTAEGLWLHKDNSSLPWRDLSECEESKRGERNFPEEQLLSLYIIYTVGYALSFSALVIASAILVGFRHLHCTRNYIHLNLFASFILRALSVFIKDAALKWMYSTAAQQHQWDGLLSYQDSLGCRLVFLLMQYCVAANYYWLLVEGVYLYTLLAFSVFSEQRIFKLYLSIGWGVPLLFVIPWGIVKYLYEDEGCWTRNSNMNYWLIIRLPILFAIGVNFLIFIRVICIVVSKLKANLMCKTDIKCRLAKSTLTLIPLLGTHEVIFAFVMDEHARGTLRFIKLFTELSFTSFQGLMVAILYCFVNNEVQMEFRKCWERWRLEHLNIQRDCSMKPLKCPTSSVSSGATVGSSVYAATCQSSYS

[3] = male, C57BL/6J, mouse, in vivo, iv, 1 mg/kg, Concentration (plasma), animal 1
[4] = male, C57BL/6J, mouse, in vivo, iv, 1 mg/kg, Concentration (plasma), animal 2
[5] = male, C57BL/6J, mouse, in vivo, iv, 1 mg/kg, Concentration (plasma), animal 3

Sequence of NEP 24.11 (P08473 whole entry): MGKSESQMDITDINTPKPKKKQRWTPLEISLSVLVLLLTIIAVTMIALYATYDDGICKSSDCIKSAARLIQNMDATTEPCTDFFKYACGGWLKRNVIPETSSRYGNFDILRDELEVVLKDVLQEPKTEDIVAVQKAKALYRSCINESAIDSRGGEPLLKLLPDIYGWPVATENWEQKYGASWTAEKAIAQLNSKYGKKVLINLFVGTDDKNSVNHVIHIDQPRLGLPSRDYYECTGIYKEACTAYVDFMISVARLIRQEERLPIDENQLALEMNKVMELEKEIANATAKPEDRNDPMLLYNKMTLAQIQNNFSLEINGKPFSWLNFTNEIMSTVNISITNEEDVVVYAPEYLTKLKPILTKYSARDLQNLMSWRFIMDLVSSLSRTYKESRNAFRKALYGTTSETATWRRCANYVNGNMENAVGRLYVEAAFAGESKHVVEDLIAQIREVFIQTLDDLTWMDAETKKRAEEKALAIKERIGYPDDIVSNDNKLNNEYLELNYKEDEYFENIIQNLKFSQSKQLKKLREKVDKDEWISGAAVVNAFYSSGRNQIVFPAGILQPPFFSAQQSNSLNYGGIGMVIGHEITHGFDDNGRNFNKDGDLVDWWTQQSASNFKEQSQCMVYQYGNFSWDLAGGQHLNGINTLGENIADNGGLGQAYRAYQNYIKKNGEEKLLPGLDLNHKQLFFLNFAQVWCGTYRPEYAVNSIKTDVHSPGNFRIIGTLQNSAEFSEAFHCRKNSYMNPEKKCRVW

CC[C@H](C)[C@H](NC(=O)[C@H](Cc1ccccc1)NC(=O)[C@H](CCC(=O)O)NC(=O)[C@H](CCCCN)NC(=O)[C@H](C)NC(=O)[C@H](C)NC(=O)[C@H](CCC(N)=O)NC(=O)CNC(=O)[C@H](CCC(=O)O)NC(=O)[C@H](CC(C)C)NC(=O)[C@H](Cc1ccc(O)cc1)NC(=O)[C@H](CO)NC(=O)[C@H](CO)NC(=O)[C@@H](NC(=O)[C@H](CC(=O)O)NC(=O)[C@H](CO)NC(=O)[C@@H](NC(=O)[C@H](Cc1ccccc1)NC(=O)[C@@H](NC(=O)CNC(=O)[C@H](CCC(=O)O)NC(=O)CNC(=O)[C@@H](N)Cc1c[nH]cn1)[C@@H](C)O)[C@@H](C)O)C(C)C)C(=O)N[C@@H](C)C(=O)N[C@@H](Cc1c[nH]c2ccccc12)C(=O)N[C@@H](CC(C)C)C(=O)N[C@H](C(=O)N[C@@H](CCCCN)C(=O)NCC(=O)N[C@@H](CCCNC(=N)N)C(=O)NCC(N)=O)C(C)C [compound 1, GLP-1-G^2 (GG2)]
% remaining analogue (NEP 24.11; isolated enzyme neprilysin, 22 h): 0.6% | NEP 24.11 t1/2 (NEP 24.11): 216 min | half-life (in vitro; pH 7.4): 16 min | remaining at 20 min (in vitro; pH 7.4, % remaining analogue): 34.8% | remaining at 1 h (in vitro; pH 7.4, % remaining analogue): 23.9% | In vivo activity (indicator) (normal mice (C57BL/6J); mice, 50 nmol kg−1 i.v.): + | effect on blood glucose concentration (normal mice (C57BL/6J); normal fed C57BL/6J mice, n = 3, 5 μg per mouse (50 nmol kg−1) i.v., monitored 6 h): decreased of blood glucose concentration after 30 min | Concentration (plasma) ([1]; time 3 min, animal 3): 3680 nM | Concentration (plasma) ([1]; time 15 min, animal 3): 60 nM | Concentration (plasma) ([1]; time 30 min, animal 2): 10 nM | Concentration (plasma) ([1]; time 30 min, animal 3): 0 nM | level at time molar at 1 min [1, 3]: 7920 nM | level at time molar at 1 min [1, 4]: 8370 nM | level at time molar at 1 min [1, 5]: 10800 nM | level at time molar at 0.05 h ([1]; male, C57BL/6J, mouse, in vivo, iv, 1 mg/kg, Concentration (plasma), time 3 min, animal 1): 3740 nM | level at time molar at 0.05 h ([1]; male, C57BL/6J, mouse, in vivo, iv, 1 mg/kg, Concentration (plasma), time 3 min, animal 2): 3500 nM | level at time molar at 5 min [1, 3]: 1780 nM | level at time molar at 5 min [1, 4]: 2610 nM | level at time molar at 5 min [1, 5]: 2540 nM | level at time molar at 10 min [1, 3]: 360 nM | level at time molar at 10 min [1, 4]: 430 nM | level at time molar at 10 min [1, 5]: 380 nM | level at time molar at […] ([1]; male, C57BL/6J, mouse, in vivo, iv, 1 mg/kg, Concentration (plasma), time 15 min, animal 1): 100 nM | level at time molar at […] ([1]; male, C57BL/6J, mouse, in vivo, iv, 1 mg/kg, Concentration (plasma), time 15 min, animal 2): 60 nM | level at time molar at 0.5 h ([1]; male, C57BL/6J, mouse, in vivo, iv, 1 mg/kg, Concentration (plasma), time 30 min, animal 1): 10 nM | clearance ([2]; 2 mg/mL in PBS 1X): 448 mL/min/kg | half-life [2]: 7 min | Vd ([2]; read-out: Vz): 4.48 L/kg | EC50 (mouse GLP-1 receptor): 0.24 nM | Emax (mouse GLP-1 receptor; read-out: Top (best-fit value)): 106%
